Source: US12129246B1, “Hydroquinazoline derivatives for the treatment of a disease or disorder” (Novartis AG, priority 2023, dated 2024)
Like-named read-outs stand apart in the source and are kept apart here.

Tests used:
[1] = target: T1, human NPR1 (Homo sapiens, UniProt P16066); assay: Cellular cGMP production assay, human NPR1 expressing CHO-K1 cells (CisBio HTRF); assay type: cell-based; conditions: for AC50: cGMP production, 30 min at 37° C., 12-point dose-response from 30 μM; for Human NPR1 Amax (% of ANP): maximum cGMP production as percentage of the maximum cGMP produced with ANP
T1 construct: host or cells: CHO-K1
T1 sequence (P16066 33-1061): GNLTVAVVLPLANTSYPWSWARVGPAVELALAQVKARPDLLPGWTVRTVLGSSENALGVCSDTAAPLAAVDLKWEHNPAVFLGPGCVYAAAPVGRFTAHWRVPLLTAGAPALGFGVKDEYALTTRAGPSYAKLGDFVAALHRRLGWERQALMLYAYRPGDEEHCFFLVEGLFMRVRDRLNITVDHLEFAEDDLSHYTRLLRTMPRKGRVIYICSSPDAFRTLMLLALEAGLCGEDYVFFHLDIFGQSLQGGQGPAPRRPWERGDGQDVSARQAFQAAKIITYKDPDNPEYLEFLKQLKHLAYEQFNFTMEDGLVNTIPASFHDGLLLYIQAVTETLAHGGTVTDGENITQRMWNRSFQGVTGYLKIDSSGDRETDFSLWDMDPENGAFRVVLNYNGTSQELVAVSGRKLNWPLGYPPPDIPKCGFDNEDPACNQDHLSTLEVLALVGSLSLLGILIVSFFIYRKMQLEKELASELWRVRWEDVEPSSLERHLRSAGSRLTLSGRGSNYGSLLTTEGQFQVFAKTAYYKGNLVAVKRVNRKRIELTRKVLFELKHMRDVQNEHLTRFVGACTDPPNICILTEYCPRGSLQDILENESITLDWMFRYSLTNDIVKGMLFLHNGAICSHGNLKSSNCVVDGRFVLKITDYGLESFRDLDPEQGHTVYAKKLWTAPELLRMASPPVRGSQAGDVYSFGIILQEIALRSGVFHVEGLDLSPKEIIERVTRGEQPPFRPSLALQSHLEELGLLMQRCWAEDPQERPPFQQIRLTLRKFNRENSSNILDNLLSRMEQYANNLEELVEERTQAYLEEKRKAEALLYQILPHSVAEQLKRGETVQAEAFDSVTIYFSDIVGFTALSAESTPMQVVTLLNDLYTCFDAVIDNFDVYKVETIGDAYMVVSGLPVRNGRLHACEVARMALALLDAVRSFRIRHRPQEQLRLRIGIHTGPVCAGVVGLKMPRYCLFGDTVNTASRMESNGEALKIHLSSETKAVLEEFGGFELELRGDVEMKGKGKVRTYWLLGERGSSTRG
How it was run: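 CHO-K1 cells expressing human or cynomolgus NPR1 treated with compound (12-point, 3-fold dilutions from 30 μM top) in PBS+0.1% BSA with 1 mM IBMX, 30 min at 37° C. After lysis, cGMP quantified by HTRF competition (cGMP-d2/anti-cGMP-cryptate, 1 h RT, 665 nm emission) against a calibrator standard curve.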

[2] = target: monkey NPR1 (Macaca fascicularis, UniProt A0A7N9DBT9); assay: Cellular cGMP production assay, monkey NPR1 expressing CHO-K1 cells (CisBio HTRF); assay type: cell-based; conditions: for Monkey NPR1 Amax (% of ANP): maximum cGMP production as percentage of the maximum cGMP produced with ANP
monkey NPR1, sequence (A0A7N9DBT9 entry or part of it): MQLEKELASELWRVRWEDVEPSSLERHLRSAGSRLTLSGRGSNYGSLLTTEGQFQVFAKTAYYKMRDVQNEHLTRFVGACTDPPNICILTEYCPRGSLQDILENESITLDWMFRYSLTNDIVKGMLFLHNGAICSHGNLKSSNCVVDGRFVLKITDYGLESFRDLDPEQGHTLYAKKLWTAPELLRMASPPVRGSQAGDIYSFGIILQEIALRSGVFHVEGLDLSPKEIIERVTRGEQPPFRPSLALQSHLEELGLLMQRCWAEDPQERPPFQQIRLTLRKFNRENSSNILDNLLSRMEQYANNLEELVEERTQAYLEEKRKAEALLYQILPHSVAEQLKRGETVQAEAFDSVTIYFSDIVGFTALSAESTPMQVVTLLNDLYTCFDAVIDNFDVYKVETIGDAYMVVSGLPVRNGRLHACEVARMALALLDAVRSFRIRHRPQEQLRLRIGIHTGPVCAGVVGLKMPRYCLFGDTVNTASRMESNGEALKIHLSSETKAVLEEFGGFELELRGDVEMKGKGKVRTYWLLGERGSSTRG
Description: Cellular cGMP is a major second messenger that mediates cell activities and is synthesized by activated NPR1 triggered by binding of the natural ligand ANP. […] The assay was performed according to manufacturer's instructions with minor deviations. […] All compound stocks were diluted in PBS+0.1% BSA at 2-fold the final assay concentration. After addition of 10 μL/well of assay buffer (PBS+0.1% BSA+1 mM IBMX) and 10 μL/well of the compounds in different concentrations (12-point dose-response with 3-fold dilutions from a top concentration of 30 μM), the plate was incubated for 30 min at 37° C. to allow for cGMP production. In parallel, a standard curve using a calibrator (contained in the kit) was generated. The cells were lysed and a mix of cGMP-d2 and anti-cGMP-cryptate was added and incubated for 1 h at room temperature. The readout was performed using an Envision plate reader (PerkinElmer) with an excitation wavelength of 317 nm and an emission wavelength of 665 nm. cGMP concentration (Delta F [° %]) was calculated according to the following formulae: […]

[3] = cGMP production, monkey NPR1 CHO-K1 cells, 30 min at 37° C., 12-point dose-response from 30 μM, read-out: Monkey NPR1 AC50

| Structure (SMILES) | AC50 [1] | Human NPR1 Amax (% of ANP) [1] | AC50 [2, 3] | Monkey NPR1 Amax (% of ANP) ([2]; monkey NPR1 CHO-K1 cells) | AC50 [2] |
| --- | --- | --- | --- | --- | --- |
| CC[C@H](N(C)c1nc2c(c(N[C@@H](CN3CCC[C@@H](CF)C3)c3cnn(C)c3)n1)C[C@@](C)(c1ccccc1)CC2)C12CC(C(=O)O)(C1)C2 [Compound 36, 3-((S)-1-(((S)-4-(((R)-2-((R)-3-(fluoromethyl)piperidin-1-yl)-1-(1-methyl-1H-pyrazol-4-yl)ethyl)amino)-6-methyl-6-phenyl-5,6,7,8-tetrahydroquinazolin-2-yl)(methyl)amino)propyl)bicyclo[1.1.1]pentane-1-carboxylic acid] | 150 nM | 101.036 % of ANP | 133 nM | 101.251 % of ANP | – |
| CC[C@H]([C@H]1CC[C@H](C(=O)O)CC1)N(C)c1nc2c(c(N[C@@H](CN3C4CCCC3CCC4)c3cnn(CC)c3)n1)C[C@@H](c1cccc(F)c1)CC2 [Compound 52, (1R,4r)-4-((R)-1-(((S)-4-(((R)-2-((1S,5S)-9-azabicyclo[3.3.1]nonan-9-yl)-1-(1-ethyl-1H-pyrazol-4-yl)ethyl)amino)-6-(3-fluorophenyl)-5,6,7,8-tetrahydroquinazolin-2-yl)(methyl)amino)propyl)cyclohexane-1-carboxylic acid] | 188 nM | 97.880 % of ANP | – | 106.496 % of ANP | 167 nM |
| CC[C@@H](N(C)c1nc2c(c(N[C@@H](CN3C4CCCC3CCC4)c3ccnn3C)n1)C[C@H](c1ccccc1)CC2)C12CC(C(=O)O)(C1)C2 [Compound 172, 3-((R)-1-(((R)-4-(((S)-2-((1R,5R)-9-azabicyclo[3.3.1]nonan-9-yl)-1-(1-methyl-1H-pyrazol-5-yl)ethyl)amino)-6-phenyl-5,6,7,8-tetrahydroquinazolin-2-yl)(methyl)amino)propyl)bicyclo[1.1.1]pentane-1-carboxylic acid] | 3680 nM | 94.632 % of ANP | – | 111.107 % of ANP | 2580 nM |
| CC[C@@H](Nc1nc2c(c(N[C@@H](CN3C4CCCC3CC4)c3sc(C)nc3C)n1)C[C@H](c1cccc(F)c1)CC2)[C@H]1CC[C@H](C(=O)O)CC1 [Compound 24, (1R,4r)-4-((1R)-1-(((6R)-4-(((1S)-2-(8-azabicyclo[3.2.1]octan-8-yl)-1-(2,4-dimethylthiazol-5-yl)ethyl)amino)-6-(3-fluorophenyl)-5,6,7,8-tetrahydroquinazolin-2-yl)amino)propyl)cyclohexane-1-carboxylic acid] | 125 nM | 112.884 % of ANP | – | 128.837 % of ANP | 102 nM |
| CC[C@@H](N(C)c1nc2c(c(N[C@@H](CN3CCCCCC3)c3cnn(C)c3)n1)C[C@H](c1cccc(F)c1)CC2)C12CC(C(=O)O)(C1)C2 [Compound 1, 3-((R)-1-(((R)-4-(((R)-2-(azepan-1-yl)-1-(1-methyl-1H-pyrazol-4-yl)ethyl)amino)-6-(3-fluorophenyl)-5,6,7,8-tetrahydroquinazolin-2-yl)(methyl)amino)propyl)bicyclo[1.1.1]pentane-1-carboxylic acid] | 14 nM | 93.788 % of ANP | 10 nM | 97.462 % of ANP | – |
| CC[C@@H](N(C)c1nc2c(c(N[C@@H](CN3C4CCCC3CCC4)c3cnn(C)c3)n1)C[C@](C)(c1ccccc1)CC2)C12CC(C(=O)O)(C1)C2 [Compound 27, 3-((R)-1-(((R)-4-(((R)-2-((1S,5S)-9-azabicyclo[3.3.1]nonan-9-yl)-1-(1-methyl-1H-pyrazol-4-yl)ethyl)amino)-6-methyl-6-phenyl-5,6,7,8-tetrahydroquinazolin-2-yl)(methyl)amino)propyl)bicyclo[1.1.1]pentane-1-carboxylic acid] | 137 nM | 92.458 % of ANP | – | 102.654 % of ANP | 137 nM |
| CC[C@H]([C@H]1CC[C@H](C(=O)O)CC1)N(C)c1nc2c(c(N[C@@H](CN3CCCC4(CCOC4)C3)c3cnn(CC)c3)n1)C[C@H](c1ccccc1)CC2 (stereo partly drawn) [Compound 162, (1R,4r)-4-((1R)-1-(((6R)-4-(((1R)-1-(1-ethyl-1H-pyrazol-4-yl)-2-(2-oxa-7-azaspiro[4.5]decan-7-yl)ethyl)amino)-6-phenyl-5,6,7,8-tetrahydroquinazolin-2-yl)(methyl)amino)propyl)cyclohexane-1-carboxylic acid] | 1700 nM | 83.721 % of ANP | 1310 nM | 89.971 % of ANP | – |
| CC[C@@H](Nc1nc2c(c(N[C@@H](CN3C4CC5CC(C4)CC3C5)c3cnn(C)c3)n1)C[C@H](c1ccccc1)CC2)[C@H]1CC[C@H](C(=O)O)CC1 [Compound 71, (1R,4r)-4-((R)-1-(((R)-4-(((R)-2-((5R,7R)-2-azaadamantan-2-yl)-1-(1-methyl-1H-pyrazol-4-yl)ethyl)amino)-6-phenyl-5,6,7,8-tetrahydroquinazolin-2-yl)amino)propyl)cyclohexane-1-carboxylic acid] | 237 nM | 91.827 % of ANP | 78 nM | 121.791 % of ANP | – |
| CC[C@@H](Nc1nc2c(c(N[C@@H](CN3CCC[C@H](C)C3)c3cnn(CC)c3)n1)CN(c1cccc(F)c1)CC2)[C@H]1CC[C@H](C(=O)O)CC1 [Compound 76, (1R,4r)-4-((R)-1-((4-(((R)-1-(1-ethyl-1H-pyrazol-4-yl)-2-((S)-3-methylpiperidin-1-yl)ethyl)amino)-6-(3-fluorophenyl)-5,6,7,8-tetrahydropyrido[4,3-d]pyrimidin-2-yl)amino)propyl)cyclohexane-1-carboxylic acid] | 247 nM | 100.752 % of ANP | 147 nM | 100.861 % of ANP | – |
| CC[C@H]([C@H]1CC[C@H](CC(=O)O)CC1)N(C)c1nc2c(c(N[C@@H](CN3CCC[C@H](C)C3)c3cnn(C)c3)n1)C[C@H](c1cccc(F)c1)CC2 [Compound 39, 2-((1R,4r)-4-((R)-1-(((R)-6-(3-fluorophenyl)-4-(((R)-1-(1-methyl-1H-pyrazol-4-yl)-2-((S)-3-methylpiperidin-1-yl)ethyl)amino)-5,6,7,8-tetrahydroquinazolin-2-yl)(methyl)amino)propyl)cyclohexyl)acetic acid] | 162 nM | 100.189 % of ANP | 102 nM | 97.588 % of ANP | – |
| CC[C@@H](Nc1nc2c(c(N[C@@H](CN3CCCC[C@H]3C)c3cnn(CC)c3)n1)C[C@H](c1ccccc1)CC2)[C@H]1CC[C@H](C(=O)O)CC1 [Compound 64, (1R,4r)-4-((R)-1-(((R)-4-(((R)-1-(1-ethyl-1H-pyrazol-4-yl)-2-((R)-2-methylpiperidin-1-yl)ethyl)amino)-6-phenyl-5,6,7,8-tetrahydroquinazolin-2-yl)amino)propyl)cyclohexane-1-carboxylic acid] | 213 nM | 93.045 % of ANP | 175 nM | 92.911 % of ANP | – |
